Measurements from patent publication US10827753B2, “Compositions and methods for controlling nematodes” (Monsanto Technology LLC, priority 2007, dated 2020).
Like-named read-outs stand apart in the source and are kept apart here. Marks after values point to notes of the source that are not given here.

Experiments:
[1] = test system: root knot nematode (RKN); experiment: RKN greenhouse soil assay on cucumber plants; format: in vivo, Meloidogyne incognita
Source text: Cucumber seeds are planted in a sandy soil mixture in two inch square plastic pots. When the cotyledons are fully opened and just as the first leaf begins to emerge, usually 7 days after planting, chemistry for the 7 day treatment is applied. One week later the chemistry for the 0 day treatment is applied. Separate plants are used for each application. The plants are generally in the 1-2 leaf stage now. At least four hours after the chemistry application the pots are inoculated with root knot nematode (RKN) eggs. Plants are rated for galling 14 days after the egg inoculation.
One milligram of chemistry per four pots is equal to one kilogram per hectare of chemical. A standard test uses four replications. For rates above 2 kg/ha, the desired amount of chemical is weighed into a 30 ml vial (example: 8 kg/ha rate=8 mg chemical in 30 ml vial). The chemical is dissolved in 2 ml of appropriate solvent, generally acetone. For rates below 2 kg/ha, 2 milligrams of chemistry is weighed into the vial and dissolved in 2 ml of the solvent. The appropriate amount of chemical concentrate is then pipetted into a separate 30 ml vial and solvent is added to bring the volume to 2 ml (example 0.5 kg/ha=0.5 ml of concentrate+1.5 ml solvent). Each dissolved concentrate is then brought to a total of 20 milliliters using 0.05% Triton X 100 surfactant solution.
Pots to be treated are moist but not saturated. To each of four pots, five milliliters of the appropriate chemical solution is pipetted to the media surface making sure to avoid contact with the base of the plant. Immediately following chemical application, using a mist nozzle, the pot surface is wetted sufficiently to saturate the pot watering in the chemistry. The chemical application is done in the morning.
Nematode eggs, either SCN or RKN, are added to distilled water to create a concentration of 1000 vermiform eggs […]. At least four hours after chemical treatment the eggs are applied to the treated pots plus non-treated check plants. A small hole about 1 cm deep is punched into the pot surface. One milliliter of the nematode egg slurry is pipetted into the hole. Immediately afterwards the hole is gently covered. Watering of the test plants is then restricted to only water as needed to prevent wilt for a period of 24 hours. After the 24 hour restricted watering, normal sub-irrigation watering is done for the duration of the test.

[2] = test system: Meloidogyne incognita; experiment: M. incognita miniaturized greenhouse assay on cucumber seedlings (root galling); format: in vivo; design: key to 1 ppm gall ratings / 1 ppm gall rating: mean of 3 gall ratings: 0=0-5%, 1=6-20%, 2=21-50%, 3=51-100% root galled; conditions: for 8 ppm gall ratings: average of triplicate gall rating, scale 0-3 (% root mass galled)
Experimental: The test compound is dissolved in an acetone solution and added to water. A sprouted cucumber seedling is placed into a vial with dry sand and the water-chemical solution is added immediately. Twenty four hours later Meloidogyne incognita eggs are added to the vials and 10 to 12 days later the roots are evaluated for nematode galling.
Cucumber seeds are sprouted for 3 days in moist paper towels. Acceptable sprouts should be 3 to 4 cm long with several lateral roots just emerging. Stock solutions of chemistry are prepared in a mixture of acetone and Triton X100 (412 mg in 500 mL) to a final concentration of 5 mg/mL. The chemical stock solution is then added to 10 mL deionized water plus 0.015% Triton X100 and mixed thoroughly. This is enough to test each condition in triplicate. Ten mL dry sand is added to each vial. At this time the solubility of the chemistry is visually determined and recorded as either ppt (large precipitates) or cloudy (fine precipitates). Seedlings are planted by tilting the vial and laying the seedling in the correct orientation so that the cotyledons are just above the sand and then tilting back to cover the radicles with sand. 3.3 ml water/chemical mix is added to each vial and the vials placed in racks under fluorescent light banks. The vials are inoculated two days after planting by adding 500 vermiform M. incognita eggs to each vial in 50 uL of deionized or spring water. The vials are then kept under the fluorescent lamps at ambient room temperature and watered as needed with 1 mL deionized water, usually twice during duration of test. Harvest of the cucumber plants is done 10 to 12 days after inoculation by washing sand off the roots. A root gall rating and visual phytotoxicity rating is assigned using the following scales: Gall rating scale (Gall: % root mass galled): 0=0-5%; 1=6-20%; 2=21-50%; and 3=51-100%. The average of the triplicate gall rating is then calculated: green=0.00-0.33 (no galls); yellow=0.67-1.33 (mild galling); orange=1.67-2.33 (moderate galling); red=2.67-3.00 (severe galling). Visual phytotoxicity scale is also assigned (Vis. tox; visual reduction in root mass compared to the control): rs1=mild stunting; rs2=moderate stunting; rs3=severe stunting.

[3] = test system: root knot nematode; experiment: Pre-plant incorporated (PPI) greenhouse test of root knot nematode on cucumber plants; format: in vivo, Meloidogyne incognita; conditions: Meloidogyne incognita, read-out: percent control (galling reduction) relative to the control blank treatment; for pest or weed control at 4000 g/ha: 4 kg/ha rate; for pest or weed control at 8000 g/ha: 8 ka/ha rate; for pest or weed control at 2000 g/ha: 2 kg/ha rate
Source text: The PPI test examines the effect of pre-incorporation of compounds in soil and longer aging to simulate in furrow methods of nematicide application in the field. The PPI test exposes compounds to a higher volume of soil and drying which can result in more severe soil binding. Compounds are also aged for longer periods which can lead to more extensive biotic and abiotic degradation further limiting activity.
The chemically treated soil (sandy soil mix) for all treatment days (e.g., 7 days, 14 days, 21 days) treatments is potted into their appropriate pots. On the same day the 7 day treatment pots are seeded. One week later eggs are applied and 14 days after egg application the test is harvested. The 14 day treatments are planted 7 days after the first planting. The 14 day planting and 7 day inoculation happen on the same day. One week later the 14 day treatments are inoculated with eggs. These are harvested 14 days after the inoculation. The 21 day treatments are planted 14 days after the first planting. The 14 day inoculation and 21 day planting are done on the same day. One week later the 21 day plants are inoculated with eggs. The 7 day treatment is harvested the same day as the 21 day inoculation. Fourteen days after inoculation the 21 day plants are harvested.
For each compound a stock is prepared using 4 mg material in 4 ml of acetone. The soil is mixed by placing 80 ml of field soil and 320 ml of sand in a plastic bag and mixing well. The formulation for treatment is done by adding 2.13 ml (8 kg/ha rate), 1.06 ml (4 kg/ha rate) or 0.53 ml (2 kg/ha rate) to a vial and raising it with 10 ml in 0.05%×100. Soil is then treated by adding the entire 10 ml to the 400 ml of mix in the bag. The treated soil is immediately mixed well in the sealed bag to distribute the compound evenly. Approximately 95 ml is used to fill each 2-inch square pot up to the top with some soil compression and flattening. For each compound and for the control treatments 4 pots are filled. All pots are watered until moist but with no run-out through the bottom.
The PPI test simulates 8, 4 and 2 kg/ha rates incorporated 15 cm deep in the field and is equivalent to the 2, 1 and 0.5 kg/ha drench application rates in the standard 2-inch pot cucumber greenhouse assay.

[4] = test system: Meloidogyne incognita; experiment: Summer field evaluation of pre-plant incorporated compounds on squash; format: in vivo
Experimental: Test plots of 33 cm diameter holes were bored 41 cm deep into clay soil and filled with a mixture of 80% sand and 20% silt loam soil. Technical compound for each treatment was dissolved in 50 ml acetone containing 250 ul of Triton X-100 surfactant. This solution was added to 450 ml water and poured onto 95 liters of sand/soil mixture in a rotating drum mixer. While continuing to rotate the mixing drum 66 grams of chopped, galled, tomato roots was added and thoroughly distributed. The treated soil was sufficient to fill the top 15 cm of each of the 6 replicate plots, thus simulating a PPI treatment. The plots were then watered lightly and a mixture of M. incognita eggs and larvae were injected 5 cm deep at 5 points within the plot (100 k eggs/larvae in 10 ml per plot). Three-week old squash (cv. Liberator III) with 1 fully expanded true leaf was planted 4 days after soil treatment, one per plot.

[5] = test system: C. elegans; experiment: Three day C. elegans well assay; format: in vivo; conditions: L4 larvae; for EC50 L4 1D: one day of exposure; for EC50 L4 2D (F1): two days of exposure, effects on the second generation larvae (F1)
Experimental: Various compounds were tested for nematicidal activity against C. elegans using contact assays in wells. The assays were performed as described below. The test compounds were solubilized in DMSO at 10 mg/ml to create 100× stock solutions. A dilution series was created by diluting the stock solution with DMSO. For each well assay 4 ul of the appropriate dilution is added to a well of a test plate. A 400 ul aliquot of bacterial stock (in M9 buffer with ampicillin and nystatin) are added to each well of the test plate. Worms are added and the test plate placed on a rotary shaker and held at 20° C. Worms are examined and scored at 4 hrs, 24 hrs, 48 hrs and 72 hours. L1 worms and L4 worms were used in the assay. L1 worms are prepared by plating eggs on a plate without a bacterial feeding layer. The eggs hatch and arrest at the L1 stage. This L1 stage population is then used to create a stock for the experiments. To create an L4 stage stock a small number of worms are taken from an overgrown and starved plate of worms and seeded on a plate with a bacterial feeder layer. A 25 ul aliquot of worms is added to each well in the assay.

[6] = Acetone 1 mg/kg, standard 10% acetone in 0.05% Triton X 100 formulation
[7] = Radex 1 mg/kg, emulsifiable concentrate, 6.25% active ingredient by weight
[8] = 168 h, seven day pre-plant incorporated
[9] = fourteen day pre-plant incorporated, test a

| Structure (SMILES) | percent control (galling reduction) relative to the appropriate control blank treatment [1, 6] | percent control (galling reduction) relative to the appropriate control blank treatment [1, 7] | 1 ppm gall ratings ([2]; Table 1B test a) | 1 ppm gall ratings ([2]; Table 1B test b) | 8 ppm gall ratings [2] | pest or weed control at 2000 g/ha [3, 9] | pest or weed control at 4000 g/ha [3, 9] | pest or weed control at 8000 g/ha [3, 9] | EC50 L4 1D [5] | also measured |
| --- | --- | --- | --- | --- | --- | --- | --- | --- | --- | --- |
| Brc1ccc(-c2noc(-c3cccs3)n2)cc1 [compound 1846] | 88% | 86% | 1.33 | 0.67 | 0 (0=0-5%) | – | – | – | – | – |
| FC(F)(F)c1ccc(-c2noc(-c3cccs3)n2)cc1 [compound 5213] | – | – | – | – | 0.33 | – | – | – | – | pest or weed control at 4000 g/ha [3, 8]: 85%; pest or weed control at 8000 g/ha [3, 8]: 98% |
| Brc1ccc(-c2noc(-c3ccco3)n2)cc1 [compound 5467] | 73% | 88% | 1.67 | 1.33 | 0 (0=0-5%) | 71% | 76% | 100% | – | – |
| Fc1ccc(-c2noc(-c3cccs3)n2)cc1 [compound 5479] | 91% | 96% | 1 (1=6-20%) | 0.67 | 0 (0=0-5%) | 71% | 89% | 100% | – | – |
| Clc1ccc(-c2noc(-c3ccco3)n2)cc1 [compound 5523] | 86% | 86% | 1 (1=6-20%) | 1.33 | 0 (0=0-5%) | 59% | 87% | 99% | – | 0-3 vigor 16 DAP ([4]; 4 kg (kg/ha) PPI, squash): 3.0; 0-3 vigor 21 DAP ([4]; 4 kg (kg/ha) PPI, squash): 3.0; feeder root (3 = ave) 31 DAP ([4]; 4 kg (kg/ha) PPI, squash): 3.0; gall % 31 DAP ([4]; 4 kg (kg/ha) PPI, squash): 26%; root wgt (g) 31 DAP ([4]; 4 kg (kg/ha) PPI, squash): 26.3 g; top wgt (lbs) 31 DAP ([4]; 4 kg (kg/ha) PPI, squash): 1.31 lbs; total fruit (lbs) ([4]; 4 kg (kg/ha) PPI, squash): 1.24 lbs; control of M. incognita (in words) ([4]; PPI application at 4 kg/ha): significant control |
| Clc1ccc(-c2noc(-c3cccs3)n2)cc1 [compound 5527] | 91% | 80% | 1.67 | 1 (1=6-20%) | 0.67 | 57% | 90% | 96% | – | – |
| Clc1cc(-c2noc(-c3cccs3)n2)ccc1Br [compound 5820] | – | – | – | – | – | – | – | – | no | EC50 L4 2D (F1) [5]: (25 F1) parts per million |
| Clc1cc(-c2noc(-c3ccco3)n2)ccc1Br [compound 5821] | – | – | – | – | – | – | – | – | no | EC50 L4 2D (F1) [5]: (0.4 F1) parts per million |
| Cc1cc(Cl)ccc1-c1noc(-c2cccs2)n1 [compound 5822] | – | – | – | – | – | – | – | – | no | – |
| Cc1cc(Br)ccc1-c1noc(-c2ccco2)n1 [compound 5825] | 96% | 96% | 0 (0=0-5%) | 0.33 | – | 69% | 98% | 96% | – | percent control (galling reduction) relative to the control blank treatment ([1]; 0 day treatment, 0.05 kg/ha, test a): 53^a percent; percent control (galling reduction) relative to the control blank treatment ([1]; 0 day treatment, 0.1 kg/ha, test a): 50^a percent; percent control (galling reduction) relative to the control blank treatment ([1]; 0 day treatment, 0.25 kg/ha, test a): 89%; percent control (galling reduction) relative to the control blank treatment ([1]; 0 day treatment, 0.25 kg/ha, test b): 84%; percent control (galling reduction) relative to the control blank treatment ([1]; 0 day treatment, 1 kg/ha, test b): — 94^b percent; percent control (galling reduction) relative to the control blank treatment ([1]; 7 day treatment, 1 kg/ha, test b): — 97^b percent |
